Source: publication PMC7104545, “Unusually persistent Gαi-signaling of the neuropeptide Y2 receptor depletes cellular Gi/o pools and leads to a Gi-refractory state” (Cell Communication and Signaling : CCS, 2020)
pEC50: −log10 of the molar value. Entries after “also recorded” stand apart in the source; their conditions may differ. Each block holds one compound with its values, some of them ahead of it. Where a SMILES comes first, the peptide text is derived from it. [ ]: non-standard residue; d: D form. Ahx = NCCCCCC(=O)O

How the values were obtained:
[1] = biological target: T1, human neuropeptide Y2 receptor (hY2R) (Homo sapiens, UniProt P49146); design: expressed in transfected cells; host or cells: HEK293 (transient transfection, pEYFP-N1 vector); settings: ref [29]; cited from earlier work
T1 sequence (P49146 1-381): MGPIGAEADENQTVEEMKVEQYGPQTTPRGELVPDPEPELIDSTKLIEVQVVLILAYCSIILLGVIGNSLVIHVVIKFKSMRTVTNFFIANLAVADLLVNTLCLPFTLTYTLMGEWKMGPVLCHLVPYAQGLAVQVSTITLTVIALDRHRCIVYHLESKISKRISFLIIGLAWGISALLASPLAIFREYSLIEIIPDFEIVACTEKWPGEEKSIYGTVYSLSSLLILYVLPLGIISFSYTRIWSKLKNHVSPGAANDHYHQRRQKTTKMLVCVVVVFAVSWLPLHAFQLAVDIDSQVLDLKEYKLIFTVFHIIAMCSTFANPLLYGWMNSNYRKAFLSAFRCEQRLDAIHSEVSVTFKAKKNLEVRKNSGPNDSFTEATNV
From the text: Contrary to the obviously low arrestin binding affinity, the unoccupied receptor apparently exists in a conformation that strongly favors G protein coupling. Kaiser et al. recently reported two different affinity states concerning Y2R binding properties. […].

[2] = biological target: T2, neuropeptide Y2R (endogenous in SH-SY5Y cells) (Homo sapiens, UniProt P49146); assay: Ca^2+-flux assay, SH-SY5Y cells transfected with chimeric Gqi; assay type: cell-based
T2 construct: SH-SY5Y cells that endogenously expressing Y2R; endogenous in cells; host or cells: SH-SY5Y (transiently transfected with chimeric Gqi protein only)
T2 sequence (P49146 1-381): T1 sequence (P49146 1-381)
Method: (§2) HEK293 cells were grown in 25 cm^2 culture flask up to 70–80% confluence in a humidified atmosphere at 37 °C and 5% CO2. Co-transfection of 800 ng plasmid encoding the GαΔ6qi4myr protein and 3200 ng plasmid encoding for the Y2R fused C-terminally to eYFP was performed by using Metafectene® Pro (Biontex Laboratories GmbH) according to manufacturer’s protocol. One-day post transfection, cells were re-seeded (100.000 cells/well) into a black poly-D-lysine covert 96-well plates (Greiner Bio-one) and incubated overnight at 37 °C. Two-days post transfection Ca^2+ experiments were performed with the help of the FLIPR® Calcium Assay Kit (Molecular Devices). […] For recycling, cells were incubated for 60 min with assay buffer (20 mM HEPES, 2.5 mM Probenecid in HBSS, pH 7.5) supplemented with 100 μg/ml CHX (Merck/Calbiochem®) and 1 μM Fluor-2-AM staining dye. […] For the GαΔ6qi4myr overexpression experiments, the transfection ratio between receptor DNA and G protein DNA was varied from the initial concentration 4:1, using a total DNA amount of 4000 ng. By keeping the G protein amount equal to 800 ng, the resulting discrepancy was filled with pcDNA3.

hY4R = assay: Ca^2+-flux assay, HEK293 co-transfected hY2R/hY4R, PP to address Y4R; assay type: cell-based, human; settings: 1 μM NPY first, acidic wash, 60 min recovery; Fig. S3B; n≥2
Method: as §2

hY2R = biological target: T3, hY2R (Homo sapiens, UniProt P49146); assay: cAMP assay, HEK293 co-transfected hY2R/hY1R, Y2R addressed; assay type: cell-based
T3 construct: expressed in transfected cells; host or cells: HEK293 (transient transfection, pEYFP-N1 vector)
T3 sequence (P49146 1-381): T1 sequence (P49146 1-381)
Method: (§1) HEK293 cells were grown in 25 cm^2 culture flask up to 70–80% confluence in a humidified atmosphere at 37 °C and 5% CO2. Co-transfection of 3000 ng pGL4.29[luc2P/CRE/Hygro] (Promega) plasmid and 3000 ng plasmid encoding for the respective receptor was performed using Metafectene® Pro (Biontex Laboratories GmbH) according to the manufacturer’s protocol. One-day post-transfection cells were seeded into white poly-D-lysine covert 96-well plates (Greiner Bio-one) and incubated overnight at 37 °C. For pertussis toxin experiments, medium was supplied with certain concentration (100 ng/ml, 250 ng/ml, 500 ng/ml) of pertussis toxin (Sigma). Two-day post-transfection cAMP experiments were performed with the help of ONE-Glo substrate (Promega), allowing luminescence measurement with the Tecan Infinite M200. […] For recycling, cells were incubated for 60 min with DMEM supplemented with 100 μg/ml CHX (Merck/Calbiochem®). […] As a positive control only 5 μM forskolin were added to the wells. After incubation, medium was exchanged by 30 μl fresh DMEM (RT). 30 μl ONE-Glo substrate was added and after 5 min of incubation the cAMP level was measured by detecting the luminescence. For co-transfection experiments the transfection of two receptors simultaneously and pGL4.29[luc2P/CRE/Hygro] plasmid were performed in a ratio 1:1:1, keeping the total amount of 6000 ng. […] The second stimulation was performed in a peptide concentration range, addressing the respective receptor that was missed in the first round.

[3] = biological target: T1, human neuropeptide Y2 receptor (hY2R); assay: cAMP reporter gene assay, HEK293-hY2R; assay type: cell-based; design: expressed in transfected cells; host or cells: HEK293 (transient transfection, pEYFP-N1 vector)
Method: as §1

[4] = tested on: melanocortin 1 receptor (MCR1); assay: cAMP assay, HEK293 co-transfected hY2R/melanocortin 1 receptor; assay type: cell-based; settings: PTX present; first stimulation 1 μM NPY
Method: HEK293 cells were grown in 25 cm^2 culture flask up to 70–80% confluence in a humidified atmosphere at 37 °C and 5% CO2. Co-transfection of 3000 ng pGL4.29[luc2P/CRE/Hygro] (Promega) plasmid and 3000 ng plasmid encoding for the respective receptor was performed using Metafectene® Pro (Biontex Laboratories GmbH) according to the manufacturer’s protocol. One-day post-transfection cells were seeded into white poly-D-lysine covert 96-well plates (Greiner Bio-one) and incubated overnight at 37 °C. For pertussis toxin experiments, medium was supplied with certain concentration (100 ng/ml, 250 ng/ml, 500 ng/ml) of pertussis toxin (Sigma). Two-day post-transfection cAMP experiments were performed with the help of ONE-Glo substrate (Promega), allowing luminescence measurement with the Tecan Infinite M200. […] For recycling, cells were incubated for 60 min with DMEM supplemented with 100 μg/ml CHX (Merck/Calbiochem®). […] As a positive control only 5 μM forskolin were added to the wells. After incubation, medium was exchanged by 30 μl fresh DMEM (RT). 30 μl ONE-Glo substrate was added and after 5 min of incubation the cAMP level was measured by detecting the luminescence. For co-transfection experiments the transfection of two receptors simultaneously and pGL4.29[luc2P/CRE/Hygro] plasmid were performed in a ratio 1:1:1, keeping the total amount of 6000 ng. […]

HEK293-hY2R cells = assay: Cell toxicity by microscopy (cell morphology); assay type: cell-based, human; settings: PTX 250 ng/ml
[5] = tested on: HEK293-HA-hY2R-eYFP cells; assay: Intracellular fate of TAMRA-NPY (live cell microscopy, lysosomal stain, EEA1 immunostaining); assay type: cell-based, human
Method: HEK293-HA-hY2R-eYFP cells were seeded on poly-D-lysine coated coverslips (500.000 /well). […] Gradually preparation of all samples was performed in 10 min intervals of 2% paraformaldehyde (PFA)/PBS on ice, 2% PFA/PBS at RT and finally 4% PFA/PBS at RT. Samples were blocked and permeabilized with 10% BSA/0.1% TritonX-100/PBS for 1 h at RT. Incubation with anti-EEA1 (Santa Cruz, sc-33,585) (1:100) in 1% BSA/0.01% TritonX-100/PBS occurred overnight at 4 °C. The next day, samples were treated with anti-rabbit-AF350 (InvitrogenTM) (1:400) in 1% BSA/0.01% TritonX- 100/PBS for 2 h at RT and mounted with Fluoromount-G®.

[6] = biological target: T1, human neuropeptide Y2 receptor (hY2R); assay: TAMRA-NPY uptake in second stimulation, live cell microscopy (HEK293-HA-Y2R-eYFP); assay type: cell-based; design: expressed in transfected cells; host or cells: HEK293 (transient transfection, pEYFP-N1 vector); settings: n ≥ 3
Method: HEK293 or HEK293-HA-Y2R-eYFP were re-seeded (150.00/well) into sterile poly-D-lysine covered μ-slide 8 wells (Ibidi) and grown in a humidified atmosphere at 37 °C and 5% CO2. For transfection, cells were cultured up to 70–80% confluency and subsequently transfected with 1.0 μg total DNA using Lipofectamine® 2000 transfection reagent (Invitrogen) according to the manufacturer’s protocol. For single transfection in empty HEK293 cells 1.0 μg of HA-Y2R-eYFP-N1 plasmid DNA was used. At the experimental day cells were starved in Opti-MEM® reduced serum medium (Gibco®) containing Hoechst33342 (Sigma) for 30 min at 37 °C. LysoTracker®Blue with a final concentration of 1 μM was used for visualization of the lysosomes. […] For recycling studies, cells were washed twice with acidic wash buffer (50 mM glycine, 100 mM NaCl, pH 3.0) and neutralized once with Hank’s balanced salt solution (HBSS; PAA), followed by a recovery period for 60 min in ligand-free media supplemented with 100 μg/ml cycloheximide (CHX; Merck/Calbiochem®) and with or without 20 mM NH4Cl as an expression inhibitor and recycling inhibitor respectively. […] All microscopy images were obtained using the AxioObserver.Z1 microscope equipped with an ApoTome imaging system (Zeiss, Jena). Within one experimental setup, all images were taken using a fixed exposure time for the single fluorescence channels.
Microscopy pictures were processed with the standard software Axio vision 4.8 and exported as an 8 Bit TIFF file (Tagged Image File Format). The open access software Image J was applied for the analysis of the pictures. For determination of mean cell surface fluorescence (MCSF) ten nonadjacent cells per image were measured using the segmented line function. Calculation of the relative TAMRA fluorescence, the Raw Intensity Density was measured under distinct conditions. The particular background fluorescence of each image was subtracted after every evaluation. Since this program uses the single gray levels for evaluation, the calculated values were evaluated retroactively as relative fluorescence intensity and analyzed with the statistical program GraphPad Prism.

adenylyl cyclase = assay: Impact of Ca^2+ and PKC on cellular cAMP level, HEK293-hY2R-eYFP; assay type: cell-based; settings: 10 µM PKC inhibitor 30 min prior to stimulation with peptide; n≥2

Compound: Nc1nc2c(ncn2[C@@H]2O[C@H](COP(=O)(O)OP(=O)(O)OP(O)(O)=S)[C@@H](O)[C@H]2O)c(=O)[nH]1 [GTPγS, Guanosine 5′-O-[gamma-thio] triphosphate]
effect of GTPγS on total binding [1]: loss in total binding

Ca^2+ activity in SH-SY5Y ([2]; SH-SY5Y, endogenous background, n≥3): no activity
Compound: pancreatic polypeptide [PP]
Ca^2+ response of PP after first stimulation with NPY (hY4R): obvious loss in activity, since no Ca^2+response was measured

Emax (hY2R; HEK293, second stimulation after 1 μM F^7,P^34-NPY and 60 min recovery, Ahx^5–24-NPY control curve = 100%): 74%
Compound: CC[C@H](C)[C@H](NC(=O)[C@H](Cc1ccc(O)cc1)NC(=O)[C@H](Cc1c[nH]cn1)NC(=O)[C@H](CCCNC(=N)N)NC(=O)CCCCCNC(=O)[C@H](CCCCN)NC(=O)[C@H](CO)NC(=O)[C@@H]1CCCN1C(=O)[C@@H](N)Cc1ccc(O)cc1)C(=O)N[C@@H](CC(N)=O)C(=O)N[C@@H](CC(C)C)C(=O)N[C@H](C(=O)N[C@H](C(=O)N[C@@H](CCCNC(=N)N)C(=O)N[C@@H](CCC(N)=O)C(=O)N[C@@H](CCCNC(=N)N)C(=O)N[C@@H](Cc1ccc(O)cc1)C(N)=O)[C@@H](C)O)[C@@H](C)CC [Ahx^5–24-NPY] (H-YPSK[Ahx]RHYINLITRQRY-NH2)

increase of baseline intracellular cAMP by forskolin ([3]; 5 μM forskolin, Y2R-expressing HEK293, without NPY): ~ 10 fold
Compound: C=C[C@@]1(C)CC(=O)[C@]2(O)[C@@]3(C)[C@@H](O)CCC(C)(C)[C@@H]3[C@H](O)[C@H](OC(C)=O)[C@@]2(C)O1 [forskolin]

Compound: pertussis toxin [PTX]
effect on inhibitory effect of Y2R (MCR1/Y2R cells) [4]: completely abolished; also recorded: abolishing the slight inhibitory effect | cell toxicity (cell morphology) (HEK293-hY2R cells): no differences in cell morphology were observed | effect on maximal forskolin-induced cAMP response after NPY ([3]; PTX 250 ng/ml, treatment of cells with NPY first): AC-activity is rescued; also recorded: clearly rescued the maximal cAMP response; also recorded: adenylyl cyclase was still activatable by forskolin | effect of varying PTX concentrations on AC-activity ([3]; PTX 100, 250, 500 ng/ml, compared to control curve (Fig. 3f)): caused inhibition of AC-activity compared to control curve

Compound: TAMRA-NPY: fluorescent NPY derivative, 5-carboxytetramethylrhodamine (TAMRA)-NPY
localisation after 60 min recycling period ([5]; 100 nM TAMRA-NPY, lysosomal marker LysoTracker Blue): degradation in lysosomes; also recorded: co-localized with the lysosomal marker | localisation in early endosomes ([5]; EEA1 immunostaining): intracellular accumulation of TAMRA-NPY in early and sorting endosomes | co-internalization with receptor ([5]; TAMRA-NPY 60 min, 37 °C): Co-internalization of the ligand-receptor-complex was observed | TAMRA-NPY internalization in second stimulation, comparison 0 RE vs 60 RE ± NH4Cl ([6]; 1 μM NPY first, then 100 nM TAMRA-NPY 60 min): no difference in TAMRA internalization | TAMRA-NPY uptake, 0 RE ([6]; 1 μM NPY, acidic wash, direct second stimulation 100 nM TAMRA-NPY 60 min, 37 °C, control = 100%): 45 ± 5% | TAMRA-NPY uptake, 60 RE ([6]; 1 μM NPY, wash, 60 min recovery with CHX, then 100 nM TAMRA-NPY 60 min, control = 100%): 49 ± 4% | TAMRA-NPY uptake, 60 RE + NH4Cl ([6]; as 60 RE with 20 mM NH4Cl during recovery, control = 100%): 48 ± 46%

Compound: CN(C)CCCn1cc(C2=C(c3c[nH]c4ccccc34)C(=O)NC2=O)c2ccccc21 [Bisindolylmaleimide I]
effect of PKC inhibitor on adenylyl cyclase inhibition (adenylyl cyclase): abolished inhibitory effect of adenylyl cyclases and Y2R downstream signaling

pEC50 (hY2R; Y1R/Y2R co-transfected HEK293, no first stimulation): 7.85 | pEC50 (hY2R; second stimulation after 1 μM F^7,P^34-NPY and 60 min recovery): 7.55 | pEC50 ([2]; no first stimulation, SH-SY5Y + Gqi, n ≥ 3): 7.38
Compound: CC[C@H](C)[C@H](NC(=O)[C@H](Cc1ccc(O)cc1)NC(=O)[C@H](Cc1cnc[nH]1)NC(=O)[C@H](CCCNC(=N)N)NC(=O)CCCCCNC(=O)[C@H](CCCCN)NC(=O)[C@H](CO)NC(=O)[C@@H]1CCCN1C(=O)[C@@H](N)Cc1ccc(O)cc1)C(=O)N[C@@H](CC(N)=O)C(=O)N[C@@H](CC(C)C)C(=O)N[C@H](C(=O)N[C@H](C(=O)N[C@@H](CCCNC(=N)N)C(=O)N[C@@H](CCC(N)=O)C(=O)N[C@@H](CCCNC(=N)N)C(=O)N[C@@H](Cc1ccc(O)cc1)C(N)=O)[C@@H](C)O)[C@@H](C)CC [Ahx^5–24-NPY] (H-YPSK[Ahx]RHYINLITRQRY-NH2)
